Experimental data from patent US8034574B2, “Screening method for prokinetic agent” (Astellas Pharma Inc., priority 2006, dated 2011).
Entries after “also recorded” stand apart in the source; their conditions may differ.

What was measured:
[1] = tested on: dog digestive tract movement; experiment: Dog digestive tract movement by strain gauge force transducer method
RIN14B cells = experiment: Serotonin secretion from RIN14B cells (immunoassay); assay type: cell-based, rat; conditions: 20 minutes culture
Procedure: After RIN14B cells in culture in a Petri dish were detached using a PBS containing 1 mM EDTA, they were sown to a 96-well plate and cultured for 2 days. The medium used was RPMI1640 (Invitrogen Japan K.K.) supplemented with 10% fetal bovine serum (ICN), 100 U/ml penicillin, and 100 μg/ml streptomycin. After the cells were once washed with Hanks' Balanced Salt Solutions (HBSS, Invitrogen) supplemented with 0.1% BSA and 10 μM fluoxetine (TOCRIS), each TRPA1 activator, previously diluted/prepared with the above-described HBSS, was added, and the RIN14B cells were cultured at 37° C. in the presence of 5% CO2 for 20 minutes. After the cultivation, the cell supernatant was recovered, and stored under freezing. The serotonin content in the supernatant was measured using a commercially available serotonin immunoassay kit (Beckman).

[2] = tested on: CHO-K1 cells not expressing the polypeptide shown by SEQ ID NO:2; experiment: Intracellular calcium by FLIPR in negative control CHO-K1 cells; assay type: cell-based; conditions: CHO-K1 cells not expressing TRPA1
[3] = tested on: mouse ileum loop water secretion; experiment: Mouse gut water secretion (ileum loop); assay type: in vivo; conditions: 6 hours; for water secretion from the gut: mouse ileum loop, 10, 100, 1,000 μg
Procedure: Mice (ddy, male, 35-42 g, SLC), fasted overnight, were anesthetized with pentobarbital (50 mg/kg i.p.) and laparotomized, and ileum tissue about 2 cm in the vicinity of the cecum was ligated with a thread at both ends to prepare an ileum loop. […] After the administration, the gut was returned to the original position, and the abdominal muscle and the skin were sutured. Six hours after the treatment, each mouse was killed by cervical dislocation, after which the ileum loop was extirpated, and the content was weighed.

rat EC cells = experiment: Serotonin secretion from rat small intestine EC cells; assay type: cell-based; conditions: 45 minutes culture
Procedure: A Wistar rat (male, 8-week-old) was decapitated and exsanguinated, after which it was dissected and laparotomized with scissors, and the small intestine was extirpated. The inside of the lumen of the extirpated small intestine was washed with physiological saline, and about 20 mL of Buffer A (70 mM NaCl, 5 mM KCl, 20 mM NaHCO3, 0.5 mM NaH2PO4, 50 mM HEPES (pH 7.2), 11 mM glucose, 3 mM EDTA, 0.5% BSA, 0.05 mM dithiothreitol, 1 mg/mL N-acetyl-L-cysteine) was injected, after which both ends were closed, and the small intestine was allowed to stand in 37° C. incubated HBSS for 10 minutes. Thereafter, the Buffer A in the lumen of the small intestine was discarded, about 20 mL of Buffer A was injected again, and the small intestine was allowed to stand in 37° C. incubated HBSS for 10 minutes. Again, the Buffer A in the lumen of the small intestine was discarded, fresh Buffer A was injected, and the small intestine was allowed to stand in 37° C. incubated HBSS for 20 minutes, after which the lumen content was recovered. […]
Serotonin secretion activity in EC cells prepared by the method described in Example 9-(3) was measured by a method modified from the method of Example 14 above. […]
The serotonin content in the supernatant was measured using a commercially available serotonin immunoassay kit (Beckman). […]

mouse constipation model = experiment: Loperamide-induced mouse constipation model (bead discharge time); assay type: in vivo; conditions: loperamide 0.3 mg/kg s.c., 0.01 to 1 mg/kg oral
Procedure: Because loperamide, a μ opioid receptor agonist, induces convulsive contraction in the gut and causes a delay of gut transportation, this experimental system is thought to be an experimental model of constipation type irritable bowel syndrome.
Mice (ddY, male, 5-week-old, SLC) were fasted from afternoon of the day before the experiment; on the day of the experiment, the mice were acclimated to the measurement cage for 1 hour or more, after which loperamide, 0.3 mg/kg, was administered subcutaneously. […] The mouse was returned to the measurement cage, and time from awakening to discharge of the glass beads was measured.

C=CCN=C=S [allyl isothiocyanate]
induction of GMC ([1]; oral): induced GMC
time after administration to induction of colon GMC (Giant migrating contraction) ([1]; oral, 1, 10 mg/kg): ≤ 10 min
stomach movement ([1]; oral, just after administration): accentuated stomach movement just after administration
serotonin secretion from RIN14B cells (RIN14B cells): serotonin secretion was promoted; also recorded: concentration-dependently promoted the release of serotonin
elevation of fluorescence intensity in negative control cells [2]: none of these compounds produced an elevation of fluorescence intensity
water secretion accentuating action, 1,000 μg dose group ([3]; mouse ileum loop, 1,000 μg): significant water secretion accentuating action observed
water secretion from the gut [3]: dose-dependently accentuated water secretion from the gut
water secretion from the gut ([3]; listed as Allyl isothiocyanate): concentration-dependently accentuated water secretion compared to the vehicle control
serotonin secretion from rat EC cells (rat EC cells): significant serotonin secretion promoting activity was observed; also recorded: promoted the release of serotonin from the EC cells
bead discharge time (mouse constipation model): dose-dependently ameliorated the delay of bead discharge time by loperamide; also recorded: concentration-dependently shortened bead discharge time compared to the vehicle control
